Tests used:
Details in all cases: 48 h
NOMO1 [1] = assay: AUC of viability dose-response curve (% viability x log10 dose units); higher = less sensitive
Procedure, shortened: (§1)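 Leukemia cells adapted to each medium were seeded in 1536-well plates (500 or 1000 cells/well) and given library compounds in DMSO for 48 h at 37°C. The 11 threefold doses spanned 47 μM to 0.79 nM, and CellTiter-Glo One luminescence was normalised per plate to DMSO and cell-free wells before four-parameter log-logistic fitting on log10 dose. Area under the curve was integrated with the trapezoidal rule, scaling curves above full viability and removing curves that failed quality control.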

SEM cells [2] = assay: as above
Procedure, shortened: as §1

P12-Ichikawa [3] = assay: as above
Procedure, shortened: as §1

NOMO1 [4] = assay: cell viability relative to DMSO control; higher = less cytotoxic
Procedure, shortened: (§2)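 Library compounds in DMSO were pin-dosed into 1536-well plates (5 μl) holding NOMO1 or SEM (500 cells/well) or P12-Ichikawa (1000 cells/well) leukemia cells, across an 11-point threefold series of 47 μM to 0.79 nM. Each cell line had been adapted for at least four passages in each medium. CellTiter-Glo One luminescence was read after 48 h at 37°C. Viability is the per-plate percentage relative to DMSO wells, with cell-free wells as background.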

SEM cells [5] = assay: as above
Procedure, shortened: as §2

P12-Ichikawa [6] = assay: as above
Procedure, shortened: as §2

Cc1ccc(C(C)(O)c2nc3ccccc3s2)c(C)c1 (stereo unspecified)
AUC of viability dose-response curve
Details | NOMO1 [1] | P12-Ichikawa [3] | SEM cells [2]
HPLM + 10% dialyzed FBS | 427 | 412 | 386
RPMI 5 mM glucose + 10% FBS | 433 | 415 | 387
RPMI 5 mM glucose + 10% dialyzed FBS | 457 | 426 | 386

cell viability [%]
Details | NOMO1 [4] | P12-Ichikawa [6] | SEM cells [5]
HPLM + 10% dialyzed FBS, 0.000781 µM | 88.5 | 97.8 | 75.7
HPLM + 10% dialyzed FBS, 0.00234 µM | 124 | 110 | 95.1
HPLM + 10% dialyzed FBS, 0.00702 µM | 115 | 103 | 106
HPLM + 10% dialyzed FBS, 0.0211 µM | 109 | 108 | 82.9
HPLM + 10% dialyzed FBS, 0.0632 µM | 130 | 106 | 108
HPLM + 10% dialyzed FBS, 0.19 µM | 127 | 114 | 114
HPLM + 10% dialyzed FBS, 0.569 µM | 113 | 82 | 6.4
HPLM + 10% dialyzed FBS, 1.71 µM | 132 | 109 | 76.6
HPLM + 10% dialyzed FBS, 5.12 µM | 98.3 | 79.4 | 94.2
HPLM + 10% dialyzed FBS, 15.4 µM | 55.7 | 37.5 | 62.4
HPLM + 10% dialyzed FBS, 46.1 µM | 28.8 | 10.2 | 63.5
RPMI 5 mM glucose + 10% FBS, 0.000781 µM | 95.7 | 91.2 | 91.7
RPMI 5 mM glucose + 10% FBS, 0.00234 µM | 101 | 105 | 110
RPMI 5 mM glucose + 10% FBS, 0.00702 µM | 105 | 107 | 94.2
RPMI 5 mM glucose + 10% FBS, 0.0211 µM | 113 | 111 | 102
RPMI 5 mM glucose + 10% FBS, 0.0632 µM | 105 | 100 | 107
RPMI 5 mM glucose + 10% FBS, 0.19 µM | 113 | 107 | 123
RPMI 5 mM glucose + 10% FBS, 0.569 µM | 110 | 91 | 7.03
RPMI 5 mM glucose + 10% FBS, 1.71 µM | 114 | 113 | 70.7
RPMI 5 mM glucose + 10% FBS, 5.12 µM | 116 | 70.8 | 102
RPMI 5 mM glucose + 10% FBS, 15.4 µM | 52.6 | 51.2 | 61.2
RPMI 5 mM glucose + 10% FBS, 46.1 µM | 21.1 | 8.46 | 63.2
RPMI 5 mM glucose + 10% dialyzed FBS, 0.000781 µM | 107 | 95.5 | 77.1
RPMI 5 mM glucose + 10% dialyzed FBS, 0.00234 µM | 107 | 103 | 112
RPMI 5 mM glucose + 10% dialyzed FBS, 0.00702 µM | 104 | 102 | 93.7
RPMI 5 mM glucose + 10% dialyzed FBS, 0.0211 µM | 113 | 111 | 114
RPMI 5 mM glucose + 10% dialyzed FBS, 0.0632 µM | 113 | 111 | 91.1
RPMI 5 mM glucose + 10% dialyzed FBS, 0.19 µM | 114 | 98 | 115
RPMI 5 mM glucose + 10% dialyzed FBS, 0.569 µM | 108 | 101 | 8
RPMI 5 mM glucose + 10% dialyzed FBS, 1.71 µM | 117 | 108 | 69.7
RPMI 5 mM glucose + 10% dialyzed FBS, 5.12 µM | 104 | 79 | 97.4
RPMI 5 mM glucose + 10% dialyzed FBS, 15.4 µM | 100 | 63.9 | 56.5
RPMI 5 mM glucose + 10% dialyzed FBS, 46.1 µM | 39.2 | 13.2 | 56.6

COc1ccc(/C=C\c2cc(OC)c(OC)c(OC)c2)cc1O
AUC of viability dose-response curve
Details | NOMO1 [1] | P12-Ichikawa [3] | SEM cells [2]
HPLM + 10% dialyzed FBS | 197 | 48.7 | 85.1
RPMI 5 mM glucose + 10% FBS | 126 | 57 | 50.9
RPMI 5 mM glucose + 10% dialyzed FBS | 155 | 71.5 | 70

cell viability [%]
Details | NOMO1 [4] | P12-Ichikawa [6] | SEM cells [5]
HPLM + 10% dialyzed FBS, 0.000781 µM | 43.4 | 21 | 27.3
HPLM + 10% dialyzed FBS, 0.00234 µM | 51.5 | 15 | 26.8
HPLM + 10% dialyzed FBS, 0.00702 µM | 49 | 12.9 | 29.2
HPLM + 10% dialyzed FBS, 0.0211 µM | 49 | 11.3 | 27.9
HPLM + 10% dialyzed FBS, 0.0632 µM | 44.6 | 11.9 | 19.5
HPLM + 10% dialyzed FBS, 0.19 µM | 47 | 9.68 | 15.9
HPLM + 10% dialyzed FBS, 0.569 µM | 41.7 | 9.98 | 16.8
HPLM + 10% dialyzed FBS, 1.71 µM | 36.6 | 8.29 | 12.7
HPLM + 10% dialyzed FBS, 5.12 µM | 36.1 | 5.6 | 8.59
HPLM + 10% dialyzed FBS, 15.4 µM | 25.3 | 4.13 | 6.14
HPLM + 10% dialyzed FBS, 46.1 µM | 23.2 | 3.74 | 3.96
RPMI 5 mM glucose + 10% FBS, 0.000781 µM | 32.1 | 27.5 | 20
RPMI 5 mM glucose + 10% FBS, 0.00234 µM | 33.7 | 22 | 22.4
RPMI 5 mM glucose + 10% FBS, 0.00702 µM | 31.2 | 13.8 | 23
RPMI 5 mM glucose + 10% FBS, 0.0211 µM | 31.2 | 14.2 | 15.1
RPMI 5 mM glucose + 10% FBS, 0.0632 µM | 31.7 | 11.2 | 8.98
RPMI 5 mM glucose + 10% FBS, 0.19 µM | 26.6 | 11.2 | 7.29
RPMI 5 mM glucose + 10% FBS, 0.569 µM | 22.5 | 10.4 | 7.3
RPMI 5 mM glucose + 10% FBS, 1.71 µM | 22.1 | 10.6 | 5.54
RPMI 5 mM glucose + 10% FBS, 5.12 µM | 23.3 | 7.66 | 5.21
RPMI 5 mM glucose + 10% FBS, 15.4 µM | 19 | 3.98 | 3.08
RPMI 5 mM glucose + 10% FBS, 46.1 µM | 14.7 | 2.78 | 2.03
RPMI 5 mM glucose + 10% dialyzed FBS, 0.000781 µM | 37.3 | 33.5 | 23.3
RPMI 5 mM glucose + 10% dialyzed FBS, 0.00234 µM | 35.2 | 26.7 | 28.5
RPMI 5 mM glucose + 10% dialyzed FBS, 0.00702 µM | 40.9 | 20.4 | 33.5
RPMI 5 mM glucose + 10% dialyzed FBS, 0.0211 µM | 38.7 | 14.9 | 25.2
RPMI 5 mM glucose + 10% dialyzed FBS, 0.0632 µM | 34.9 | 15.3 | 12.6
RPMI 5 mM glucose + 10% dialyzed FBS, 0.19 µM | 33.4 | 14.3 | 10.5
RPMI 5 mM glucose + 10% dialyzed FBS, 0.569 µM | 31.8 | 13.1 | 9.81
RPMI 5 mM glucose + 10% dialyzed FBS, 1.71 µM | 30.7 | 11 | 7.46
RPMI 5 mM glucose + 10% dialyzed FBS, 5.12 µM | 27.8 | 9.65 | 6.37
RPMI 5 mM glucose + 10% dialyzed FBS, 15.4 µM | 23.4 | 7.03 | 4.4
RPMI 5 mM glucose + 10% dialyzed FBS, 46.1 µM | 20 | 3.92 | 2.55

Reference: the supplement of paper PMC11451515
